Measured values from patent US20180369241A1, “TREATMENT OF CANCER WITH DNAPK INHIBITORS” (Celgene Corporation, priority 2015, published 2018).

Columns and labels:
LNCaP-AR-MDVR cells = assay: Invasion and migration of enzalutamide-resistant LNCaP-AR cells, crystal violet quantification; assay type: cell-based
Source text: (§1) FIG. 4 provides: Expression of Wnt pathway genes after DNAPK knockdown (panel A) or inhibition (NU7441) (panel B) in LNCaP-AR cells; Immunoblot analyses of DNAPK, phospho-DNAPK (pDNAPK), active beta catenin (βcatenin), and cMyc levels in LNCaP-AR and C4-2 cells after DNAPK knockdown (siDNAPK) or inhibition (NU7441) with or without Wnt3A stimulation (panels C-D); Representative images (200×) and crystal violet quantification of LNCaP-AR and C4-2 cell invasion and migration after DNAPK inhibition (NU7441 or Compound 1) with or without Wnt3A stimulation (panel E); and Representative images (200×) and crystal violet quantification of enzalutamide-resistant LNCaP-AR (LNCaP-AR-enza-res) cell invasion and migration after DNAPK inhibition (NU7441 or Compound 1) or continued enzalutamide treatment (Enza) (panel F). All graphs are mean±S.D. *=p<0.05 compared to respective controls. Enza=enzalutamide. Enza-res=enzalutamide resistant. RQ=relative quantity. siNTC=non-targeting siRNA control.
FIG. 9 provides: Expression of Wnt pathway target genes in LNCaP-AR cells grown in enzalutamide until resistance (LNCaP-AR-enza-res) relative to LNCaP-AR cells grown in vehicle (DMSO) (panel A); and Expression of AR or AR-target genes FKBP5 and KLK3 (PSA) in LNCaP-AR-enza-res cells after treatment with 10 μM enzalutamide (panel B). GAPDH was used as internal reference, bars are mean±S.D. *=p<0.05. RQ=relative quantity.

LNCaP-AR cells [1] = assay: Boyden chamber migration and invasion assay, crystal violet quantification; assay type: cell-based
Source text: (§2) FIG. 2 provides: Representative images (200×) and crystal violet quantification of migration (panel A) and invasion (panel B) of C4-2, LNCaP-AR and PC3 cells in Boyden chamber assays after DNAPK knockdown (siRNA) or inhibition (NU7441); C4-2, LNCaP-AR and PC3 cell growth curves after DNAPK inhibition (NU7441) (panel C) or knockdown (siRNA) (panel D); and DNAPK knockdown by siRNA relative to non-targeting (siNTC) control (panel E). *p<0.05, […] compared to respective controls. All graphs are mean±S.D.
as §1

C4-2 cells [2] = assay: as above; assay type: cell-based
Source text: as §2, §1

PC3 xenograft tumors = assay: PC3 xenograft tumor growth; assay type: in vivo
Source text: (§3) FIG. 10 provides: Body weight measurements of LNCaP-AR xenograft mice after treatment with NU7441 (panel A); Growth curves of VCaP xenograft tumors with various doses of Compound 1 (administered once daily via oral gavage, 5 times per week for 6 weeks) or vehicle (panel B); Body weight measurements of VCaP xenograft mice after treatment with various Compound 1 doses (panel C); and Growth curves of PC3 xenograft tumors treated with Compound 1 or vehicle (panel D). All graphs are mean±S.E.M. *=p<0.05 compared to vehicle.

VCaP xenograft tumors = assay type: in vivo, mice
Source text: as §3

LNCaP-AR xenografts = assay type: in vivo; details: for median tumor tripling time: enzalutamide 10 mg/kg, Compound 1 2 mg/kg, vehicle 15 days
Protocol: (§4) FIG. 6 provides: Growth curves of LNCaP-AR xenografts in castrated mice treated daily with vehicle (black, n=5) or 25 mg/kg NU7441 (gray, n=6) (panel A); Fold change in final tumor volume (panel B); Kaplan-Meier curves of freedom from tumor doubling time with vehicle or NU7441 (25 mg/kg) treatment of LNCaP-AR xenograft tumors (panel C); Growth curves of LNCaP-AR xenograft tumors with 5 times weekly oral gavage enzalutamide (10 mg/kg, n=16), Compound 1 (2 mg/kg, n=14), Compound 1+enzalutamide (n=14), or vehicle (n=14) treatment. Bar graph represents change in final tumor volume compared to starting tumor volume (panel D); Kaplan-Meier curves of freedom from tumor tripling with enzalutamide, Compound 1, enzalutamide+Compound 1, or vehicle treatment of LNCaP-AR xenograft tumors (panel E); Expression of select Wnt pathway target genes in human primary prostate tumor explants treated with NU7441 (n=6) or vehicle (panel F); and Representative images of Ki67 immunostaining of human primary prostate tumor explants treated with NU7441 (n=6) or vehicle; Ki67-positive nuclei are indicated with arrows (panel G). All graphs are mean±S.E.M. *=p<0.05 compared to respective control, #=p<0.05 for enzalutamide compared to Compound 1+enzalutamide, **=p<0.01 for Compound 1 compared to vehicle.
as §3

[3] = tested on: TOPFLASH reporter in PC3 cells; assay: TOPFLASH luciferase reporter activity; assay type: cell-based; details: baseline and Wnt3A-induced, normalized to renilla luciferase
Source text: FIG. 5 provides: Immunoblot analyses of DNAPK, KU70 and LEF1 after DNAPK immunoprecipitation (left), and LEF1 and DNAPK after LEF1 immunoprecipitation (right) in LNCaP-AR cells (panel A); TOPFLASH luciferase reporter activity in PC3 cells after DNAPK inhibition (NU7441) and/or Wnt3A stimulation; activity is normalized to renilla luciferase (panel B); and Representative images (200×) and crystal violet quantification of LNCaP-AR and C4-2 cell invasion and migration after DNAPK, LEF1 or beta catenin (CTNNB1) knockdown by siRNA. *=p<0.05 compared to respective controls, #=p<0.05 compared to Wnt3A (panel C). All graphs are mean±S.D. siNTC=non targeting siRNA control.

PC3 cells [4] = assay: Boyden chamber migration and invasion assay, crystal violet quantification; assay type: cell-based; details: PC3 cells (AR-negative)
Source text: as §2

[5] = tested on: Wnt pathway genes in C4-2 cells; assay: Expression of Wnt pathway genes after DNAPK inhibition; assay type: cell-based
Source text: FIG. 8 provides: Expression of Wnt pathway genes in C4-2 cells after inhibition (NU7441) (panel A) or knockdown (panel B) of DNAPK; and Expression of Notch pathway genes in LNCaP-AR, PC3 and C4-2 cells after knockdown of DNAPK (panel C). GAPDH was used as internal reference, bars are mean±S.D. *=p<0.05. RQ=relative quantity.

[6] = tested on: human primary prostate tumor explants; assay: Human primary prostate tumor explants; details: human prostate cancer explants
Protocol: as §4

[7] = tested on: Wnt pathway genes in LNCaP-AR cells; assay: Expression of Wnt pathway genes after DNAPK inhibition; assay type: cell-based
Source text: as §1

[8] = tested on: active beta-catenin and cMyc in LNCaP-AR cells; assay: Immunoblot of active beta catenin and cMyc with or without Wnt3A stimulation; assay type: cell-based; details: baseline and Wnt3A-induced
Source text: as §1

[9] = tested on: active beta-catenin and cMyc in C4-2 cells; assay: as above; assay type: cell-based; details: baseline and Wnt3A-induced
Source text: as §1

LNCaP-AR cells [10] = assay: Cell growth curves after DNAPK inhibition; assay type: cell-based
Source text: as §2

C4-2 cells [11] = assay: Cell growth curves after DNAPK inhibition; assay type: cell-based
Source text: as §2

PC3 cells [12] = assay: Cell growth curves after DNAPK inhibition; assay type: cell-based
Source text: as §2

[13] = LNCaP-AR (CRPC) cells, baseline and Wnt3A-induced
[14] = C4-2 (CRPC) cells, baseline and Wnt3A-induced

SMILES: CCN1C(=O)CNc2ncc(-c3ccc(-c4nc[nH]n4)nc3C)nc21 [Compound 1, 1-ethyl-7-(2-methyl-6-(1H-1,2,4-triazol-3-yl)pyridin-3-yl)-3,4-dihydropyrazino[2,3-b]pyrazin-2(1H)-one]
- invasion (LNCaP-AR-MDVR cells): significantly reduced
- migration (LNCaP-AR-MDVR cells): significantly reduced
- invasion (LNCaP-AR cells [1]; [13]): abrogated
- migration (LNCaP-AR cells [1]; [13]): abrogated
- invasion (C4-2 cells [2]; [14]): abrogated
- migration (C4-2 cells [2]; [14]): abrogated
- regression of AR-independent PC3 tumors (PC3 xenograft tumors): significant regression
- toxicity (body weight) (VCaP xenograft tumors; mouse, in vivo, 2 mg/kg): non-toxic
- tumor growth (VCaP xenograft tumors; various doses, once daily oral gavage, 5 times per week for 6 weeks, best observed at 2 mg/kg): dose-dependent reduction
- median tumor tripling time (LNCaP-AR xenografts; 5 times weekly oral gavage): 29.5 days
- tumor regression (LNCaP-AR xenografts; pre-castrated conditions, 2 mg/kg, 5 times weekly oral gavage, comparator enzalutamide 10 mg/kg): significantly better tumor regression compared to enzalutamide

SMILES: O=c1cc(N2CCOCC2)oc2c(-c3cccc4c3sc3ccccc34)cccc12 [NU7441]
- TOPFLASH reporter activity [3]: significantly reduced
- invasion (LNCaP-AR-MDVR cells): significantly reduced
- migration (LNCaP-AR-MDVR cells): significantly reduced
- invasion (PC3 cells [4]): drastically diminished
- migration (PC3 cells [4]): drastically diminished
- Wnt pathway genes expression [5]: robust reduction
- invasion (LNCaP-AR cells [1]; [13]): abrogated
- migration (LNCaP-AR cells [1]; [13]): abrogated
- invasion (LNCaP-AR cells [1]; LNCaP-AR cells (AR-positive)): drastically diminished
- migration (LNCaP-AR cells [1]; LNCaP-AR cells (AR-positive)): drastically diminished
- invasion (C4-2 cells [2]; [14]): abrogated
- migration (C4-2 cells [2]; [14]): abrogated
- invasion (C4-2 cells [2]; C4-2 cells (AR-positive)): drastically diminished
- migration (C4-2 cells [2]; C4-2 cells (AR-positive)): drastically diminished
- Wnt target gene expression [6]: marked reduction
- proliferative index, as determined by Ki67 levels [6]: marked reduction
- Wnt pathway genes expression [7]: robust reduction
- reduction in tumor growth compared to control (LNCaP-AR xenografts; castrated mice, 25 mg/kg daily): 44%
- relative tumor volume (LNCaP-AR xenografts; castrated mice, 25 mg/kg daily, fold change in final tumor volume, vehicle 8.57±1.45): 4.84±1.97
- median tumor doubling time (LNCaP-AR xenografts; castrated mice, 25 mg/kg daily, vehicle 7 days): 21.5 days
- toxicity as measured by body weight (LNCaP-AR xenografts; mouse, in vivo): minimal
- levels of active beta-catenin [8]: reduced
- levels of cMyc [8]: reduced
- levels of active beta-catenin [9]: reduced
- levels of cMyc [9]: reduced
- proliferation (LNCaP-AR cells [10]): drastically diminished
- proliferation (C4-2 cells [11]): drastically diminished
- proliferation (PC3 cells [12]): drastically diminished

SMILES: CNC(=O)c1ccc(N2C(=S)N(c3ccc(C#N)c(C(F)(F)F)c3)C(=O)C2(C)C)cc1F [enzalutamide]
- median tumor tripling time (LNCaP-AR xenografts; 5 times weekly oral gavage): 23.5 days
